# Source: a melting point compilation (Tetko et al.)
row,SMILES,melting point [°C]
1,CC(C)(C)OC(=O)NCC1(C(=O)O)CCCC1,123 to 125
2,Cc1cccc(-n2cc(C(=O)CCl)nn2)c1,141 to 143
3,NNc1cc(Cl)ncn1,151 to 153
4,NC(=O)c1cccc(O)c1,163 to 165
5,CC(C)(C)OC(=O)Nc1ccc(C(F)(F)F)cc1C(=O)O,190 to 192
6,O=S(=O)(Cl)c1ccc2oc3ccccc3c2c1,134 to 136
7,O=C(O)c1ccccc1NS(=O)(=O)c1ccc(Cl)c([N+](=O)[O-])c1,211 to 213
8,N#Cc1ccc(F)c(Cl)c1Cl,65 to 67
9,O=C(O)CCSc1ccccc1F,118 to 120
10,COc1ccccc1-n1cc(-c2ccc(Cl)cc2Cl)nc1S,244 to 246
11,COc1cc2[nH]nnc2cc1C(=O)O,219 to 221
12,CC(=O)NCC1CCNCC1,97 to 99
13,Cc1ccccc1-c1csc(=O)[nH]1,123 to 125
14,COc1cc(C=O)cc(Br)c1OCC(=O)N(C)C,62 to 64
15,Nc1cnn(-c2ccccc2F)c1,59 to 61
16,CCCS(=O)(=O)Nc1cccc(O)c1,101 to 103
17,Cc1ccccc1OCCCC(=O)Nc1ccc(CN)cc1,82 to 84
18,NNc1nc2cc(F)c(F)cc2[nH]1,221 to 223
19,COc1ccccc1Nc1nc(N)nc(CCl)n1,160 to 162
20,CN(CC(=O)O)S(=O)(=O)c1cccnc1,175 to 177
21,Nc1nc2ccc(S(N)(=O)=O)cc2s1,259 to 261
22,O=C(O)CCOc1cccnc1,174 to 176
23,NC(=O)CCSc1ccc(F)cc1,119 to 121
24,COc1cc(C=O)ccc1OCC(N)=O,155 to 157
25,NCc1cccc(CN2CCCC(C(N)=O)C2)c1 (configuration not stated),104 to 106

row,SMILES,melting point [°C]
1,CN(C)c1cccc(-c2nnc(N)o2)c1,175 to 177
2,Nc1cccc2c1C(=O)N(C1CC1)C2=O,159 to 161
3,Nc1ccnc2nc(C(F)(F)F)nn12,221 to 223
4,Cn1cc(S(=O)(=O)N2CCCCC2)cc1C(=O)O,236 to 238
5,O=C1NC(=O)N(C2CC2)C1=O,115 to 117
6,Cc1cc(C)cc(Nc2nnc(SC(C)C(=O)O)s2)c1 (configuration not stated),127 to 129
7,Cn1cc(-c2nc(C(=O)O)cs2)cn1,262 to 264
8,O=C1COc2c(F)cc(Br)cc21,102 to 104
9,O=S(=O)(Cl)c1ccccc1-c1ccccc1,94 to 96
10,CCOC(=O)/C(C#N)=C/Nc1ccc(OC)cc1OC,153 to 155
11,Cc1noc(C)c1COc1ccc(C(=O)O)cc1,224 to 226
12,C#CCNC(=O)CBr,73 to 75
13,Nc1nccc(-c2cccs2)n1,185 to 187
14,CCOC(=O)c1c(NC(=O)C(C)Cl)sc2c1CCC(C)C2 (configuration not stated),90 to 93
15,O=C(O)Cn1[nH]c(=O)c2ccccc2c1=O,272 to 274
16,CC(C)C1CNc2ccccc2N1 (configuration not stated),73 to 75
17,CC1CCCN(S(=O)(=O)c2ccc(CN)cc2)C1 (configuration not stated),92 to 94
18,Cc1ccc(Oc2ccc(Cl)cc2NC(=O)CCl)cc1,87 to 89
19,CN(C)c1cc(N)ccn1,146 to 148
20,CCn1c(S)nnc1-c1ccncc1,140 to 142
21,COc1cc(S(N)(=O)=O)c(OC)cc1N,203 to 205
22,COc1cc(N2CC(C(=O)O)CC2=O)cc(OC)c1OC (configuration not stated),143 to 145
23,COCCCNc1c(N)n(Cc2ccccc2)c(=O)[nH]c1=O,148 to 150
24,CCCn1c(S)nnc1-c1ccncc1,258 to 260
25,COC(=O)c1ccc2nnn(O)c2c1,166 to 168

row,SMILES,melting point [°C]
1,Cc1ccc(Cl)c2ccc(Cl)nc12,61 to 63
2,COc1ccc(C(=O)CCl)cc1F,88 to 92
3,Cc1cnc(Br)nc1Br,58 to 60
4,CC1(C)NC(=O)N(Cc2ccc(C#N)cc2)C1=O,167 to 169
5,CCCC(C)(N)C(=O)O (configuration not stated),269 to 271
6,NC(=O)CCOc1ccccc1N,98 to 100
7,CCN(CC)S(=O)(=O)c1ccc(Oc2cccc(C)c2)c(N)c1,122 to 124
8,Cc1ccc(C)c(SCC(=O)O)c1,73 to 75
9,O=C(O)CCCc1nc2ccccc2c(=O)[nH]1,269 to 271
10,Cc1cc(C=O)c(C)n1CC(C)C,43 to 47
11,O=C1CCCN1c1cccc(Br)c1,69 to 71
12,NS(=O)(=O)C1CCOC1 (configuration not stated),85 to 87
13,O=C(O)CNS(=O)(=O)C1CCS(=O)(=O)C1 (configuration not stated),306 to 308
14,NC(=O)c1ccc(N)cc1F,148 to 150
15,CCOC(=O)/C(C#N)=C\Nc1ccccc1F,142 to 144
16,Nc1nc2ccccn2n1,123 to 125
17,COc1ccc(C(=O)CBr)cc1Cl,99 to 101
18,Nc1ccnn1C1CCS(=O)(=O)C1 (configuration not stated),169 to 171
19,NS(=O)(=O)c1ccc(CCCl)cc1,178 to 180
20,O=Cc1cc(Br)c2c(c1)OCCCO2,73 to 75
21,COC(=O)c1cnc2[nH]nc(C)c2c1,185 to 187
22,N#CCc1c(C#N)c(N)nc(N2CCCCC2)c1C#N,142 to 144
23,CCCn1cnc2c1c(=O)[nH]c(=O)n2C,256 to 258
24,Cc1cc(O)c([N+](=O)[O-])cc1S(=O)(=O)Cl,63 to 65
25,CC(=O)Nc1ccc(S(=O)(=O)NC(C)C(=O)O)cc1 (configuration not stated),178 to 180

row,SMILES,melting point [°C]
1,CC(C)c1nnc(N)[nH]1,108 to 110
2,CC(C)CN1CCCCC1C(=O)O (configuration not stated),198 to 200
3,CN(C)c1ccc(N)c2cnccc12,107 to 109
4,O=C(O)CCCSc1nc2ccccc2s1,103 to 105
5,O=C(O)Cc1cnn(-c2ccccc2)c1,107 to 109
6,CN1C(=O)C(C(N)=O)=C(N)C12CCCC2,255 to 257
7,COc1ccc2cc(C(C)Cl)ccc2c1 (configuration not stated),82 to 84
8,Cc1cc([N+](=O)[O-])c(C)cc1C#N,119 to 121
9,O=Cc1cc(Cl)c2c(c1)OCCO2,79 to 83
10,Cc1nc2n(n1)CC(N)CC2 (configuration not stated),60 to 62
11,Cc1ocnc1C(=O)O,127 to 129
12,N#Cc1oc2ccccc2c1O,138 to 140
13,COc1cccc(Cl)c1C(=O)O,140 to 142
14,O=C(O)CN1C(=O)Cc2ccccc21,220 to 222
15,Sc1nnc(-c2ccncc2)o1,270 to 275
16,Cc1ccc(S(N)(=O)=O)cc1N(C)C,126 to 128
17,N#CC=CS(=O)(=O)c1ccc(Cl)cc1,141 to 143
18,O=S(=O)(Cl)c1ccc2c(c1)CCC2,33 to 42
19,CC(C)NS(=O)(=O)C1CCNC1 (configuration not stated),104 to 106
20,CCn1c(NN)nc2ccccc2c1=O,159 to 161
21,CN(Cc1c(F)cccc1Cl)C(=O)CCl,54 to 56
22,COc1ccc2nc(C)nc(Cl)c2c1,119 to 121
23,Nc1ccc(N2CCCC2)nc1,83 to 85
24,CC(=CC(=O)O)c1ccc(C(F)(F)F)cc1,122 to 124
25,Cc1cc(C(=O)O)ccc1NC(=O)OC(C)(C)C,178 to 180

row,SMILES,melting point [°C]
1,COc1cc2c(c(OC)c1OC)CCNCC2,60 to 62
2,Cc1cc([N+](=O)[O-])cc(C)c1S(=O)(=O)Cl,84 to 86
3,Cc1cc(=O)[nH]c(-c2ccncc2)n1,241 to 243
4,CCS(=O)(=O)NCCS(=O)(=O)Cl,68 to 70
5,O=C(CCCl)Nc1ccc(Cl)cc1,124 to 126
6,CCCOc1ccc(-c2nc(C(=O)O)cs2)cc1,183 to 185
7,Nc1ccc(-c2nc3ccccc3s2)cc1,149 to 151
8,O=C(O)c1cc(F)cc2[nH]cnc12,339 to 341
9,Cc1nn(C(F)F)c(C)c1CO,86 to 88
10,O=C1COc2c(Br)cc(Cl)cc21,139 to 141
11,COc1ccc(C(CNC(=O)OCC(F)(F)F)N2CCCC2)cc1 (configuration not stated),55 to 57
12,NNC(=O)Cc1ccccc1Cl,154 to 156
13,O=C(O)c1cc(-c2ccccc2F)on1,182 to 184
14,CCC(=O)Nc1ccc(Cl)c(N)c1,105 to 107
15,Cc1oc(-n2cccc2)c(C#N)c1C(=O)O,208 to 210
16,NS(=O)(=O)c1ccc(S(=O)(=O)Cl)c(F)c1,111 to 113
17,CCCN(CCC)C(=O)C1C2C=CC(C2)C1C(=O)O (configuration not stated),113 to 115
18,CC(=O)Nc1cc(F)c(S(=O)(=O)Cl)c(F)c1,133 to 135
19,Nc1cc(Br)ccc1N1CCOCC1,153 to 155
20,Nc1cn[nH]c(=O)c1Cl,299 to 301
21,O=C(Nc1ccccc1[N+](=O)[O-])c1ccc2ccccc2n1,73 to 75
22,CC(C)C(O)c1nccn1C (configuration not stated),80 to 82
23,CCCCn1c(N)c(NCc2ccccc2)c(=O)[nH]c1=O,207 to 209
24,O=C(O)CCc1nc2sc3c(c2c(=O)[nH]1)CCC3,220 to 222
25,COc1ccccc1NS(=O)(=O)c1ccc(O)c(N)c1,167 to 169

row,SMILES,melting point [°C]
1,NC(=S)C1CCCC1,84 to 86
2,CN(C)C(=O)c1ccccc1C(=O)O,124 to 126
3,COc1cccc(NC(=S)NN)c1,168 to 170
4,O=C(CCCl)Nc1ccc(N2CCCC2=O)cc1,194 to 196
5,Cn1ccnc1C(N)c1ccccc1 (configuration not stated),51 to 53
6,CCNC(=O)NC1CCC(O)CC1 (configuration not stated),36 to 39
7,Cc1sc(N)nc1C(C)C,107 to 109
8,Clc1ccc2[nH]c(C3CCCN3)nc2c1 (configuration not stated),124 to 126
9,COc1ccc(O)c(N)c1,135 to 140
10,O=C(O)CCc1cscn1,156 to 158
11,O=C(CCl)c1ccc(C2CCCCC2)cc1,182 to 187
12,COc1cccc(C(=O)NN)c1O,144 to 146
13,N#Cc1ccc2[nH]c(=O)[nH]c2c1,296 to 298
14,C/C(Cn1nc(C)cc1C)=N\O,114 to 116
15,O=C1CNc2ccccc2N1,119 to 121
16,CNC(=O)CS(=O)(=O)c1ccc(C(=O)O)cc1,249 to 251
17,O=C(CN1CCNCC1)Nc1ccc(OC(F)(F)F)cc1,86 to 88
18,Nc1ccc(Oc2ccncc2)c(Cl)c1,129 to 131
19,CC(C)c1nc(C(=O)O)nn1-c1c(Cl)cccc1Cl,179 to 181
20,O=C(O)c1ccc2c(c1)C(=O)NS2(=O)=O,279 to 281
21,N#CCc1cccc(C#N)c1,78 to 80
22,CC(C)(C)OC(=O)Nc1cc2c(cc1N)OCO2,93 to 95
